Data taken from PMC7802075 (ACS Infectious Diseases, 2020).
Counter-ions that a name gives are not always drawn.

molecular target: T1, LmjIPCS (inositol phosphorylceramide synthase from L. major) (Leishmania major, UniProt E9AFX2); experiment: biochemical; type: biochemical; parameters: inhibition: dose or concentration left out as unconfirmed; conditions: not given
T1 sequence (E9AFX2 1-338): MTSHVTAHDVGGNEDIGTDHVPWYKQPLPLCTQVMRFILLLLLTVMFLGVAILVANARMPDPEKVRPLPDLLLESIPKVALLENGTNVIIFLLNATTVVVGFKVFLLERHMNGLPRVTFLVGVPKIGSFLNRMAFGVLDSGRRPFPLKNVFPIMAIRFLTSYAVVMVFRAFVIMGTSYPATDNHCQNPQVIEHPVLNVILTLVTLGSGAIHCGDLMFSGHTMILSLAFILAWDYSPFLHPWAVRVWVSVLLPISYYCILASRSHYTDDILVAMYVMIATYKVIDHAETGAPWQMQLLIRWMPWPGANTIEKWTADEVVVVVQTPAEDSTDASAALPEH

| Compound | 20mM inhibition LmjIPCS |
| --- | --- |
| CCn1nc(C(=O)O)c(=O)c2cc3c(cc21)OCO3 [CINOXACIN] | 53% |
| COc1ccc2c3c([nH]c2c1)C(C)=NCC3 [HARMALINE] | 54% |
| CO/N=C(\C(=O)N[C@@H]1C(=O)N2C(C(=O)O)=C(COC(C)=O)CS[C@H]12)c1csc(N)n1 [CEFOTAXIME] | 44% |
| CC(NCCc1ccc(O)cc1)C(O)c1ccc(O)cc1 (centres unmarked) [RITODRINE] | 58% |
| CCN(CC)CCOC(=O)C(Cc1cccc2ccccc12)CC1CCCO1 (centres unmarked) [NAFRONYL] | 46% |
| C[C@]12CC[C@@H](OS(=O)(=O)O)C[C@@H]1CC[C@@H]1[C@@H]2CC[C@]2(C)C(=O)CC[C@@H]12 [ANDROSTERONE Sulfate] | 33% |
| O=c1ccc2cc(O[C@@H]3O[C@H](CO)[C@@H](O)[C@H](O)[C@H]3O)c(O)cc2o1 [AESCULIN] | 10% |
| CCN(CC)CCCC(C)Nc1c2ccc(Cl)cc2nc2ccc(OC)cc12 (centres unmarked) [QUINACRINE] | 59% |
| NC(=O)c1cc([N+](=O)[O-])cc([N+](=O)[O-])c1 [NITROMIDE] | 9% |
| BENZALKONIUM CHLORIDE | 9% |
| CC1=C(/C=C/C(C)=C/C=C/C(C)=C/C=C/C=C(C)/C=C/C=C(C)/C=C/C2=C(C)CCCC2(C)C)C(C)(C)CCC1 [beta-CAROTENE] | 45% |
| COc1ccccc1N1CCNCC1 [1- (2-METHOXYPHENYL)PIPERAZINE] | 30% |
| OC(c1cc(C(F)(F)F)nc2c(C(F)(F)F)cccc12)C1CCCCN1 (centres unmarked) [MEFLOQUINE] | 49% |
| Cc1cc(O)ccc1Cl [CHLOROCRESOL] | 49% |
| CON [METHOXYAMINE] | 12% |

same assay, conditions: NINDS set screen, compound at 20mM (so in the source)

| Compound | 20mM inhibition LmjIPCS |
| --- | --- |
| N.N.O=C([O-])C1(C(=O)[O-])CCC1.[Pt+2] [CARBOPLATIN] | 16% |

same assay, conditions: NINDS set screen, single concentration printed as 20mM

| Compound | 20mM inhibition LmjIPCS |
| --- | --- |
| CC[C@H]1CN2CC[C@H]1C[C@@H]2[C@@H](O)c1ccnc2ccc(OC)cc12 [HYDROQUINIDINE] | 58% |
| CC(C)NCC(O)c1ccc2ccccc2c1 (centres unmarked) [PRONETALOL] | 60% |
| O=C(O)CCCCCCCC(=O)O [AZELAIC ACID] | 38% |

same assay, conditions: NINDS set screen; read-out: inhibition LmjIPCS

| Compound | inhibition |
| --- | --- |
| CC(C)(O)CC[C@@H](O)[C@](C)(O)[C@H]1CC[C@@]2(O)C3=CC(=O)[C@@H]4C[C@@H](O)[C@@H](O)C[C@]4(C)[C@H]3CC[C@]12C [CRUSTECDYSONE] | -3.51% |
| Cn1c(=O)c2c(ncn2CC(O)CO)n(C)c1=O (centres unmarked) [DYPHYLLINE] | -5.31% |
| NC(=O)c1ccccc1O [SALICYLAMIDE] | 0.588% |
| OCCN(CCO)c1nc(N2CCCCC2)c2nc(N(CCO)CCO)nc(N3CCCCC3)c2n1 [DIPYRIDAMOLE] | -11% |
| Cn1c(=O)[nH]c2ncn(C)c2c1=O [PARAXANTHINE] | -5.66% |
| COc1ccc2cc(CCC(C)=O)ccc2c1 [NABUMETONE] | 12% |
| Cc1cccc(Nc2ccccc2C(=O)O)c1C [MEFENAMIC ACID] | -9% |
| CCN(CC)CCNC(=O)c1cc(S(C)(=O)=O)ccc1OC [TIAPRIDE] | -5% |
| Nc1nc2c(c(=O)[nH]1)N(C=O)C(CNc1ccc(C(=O)N[C@@H](CCC(=O)O)C(=O)O)cc1)CN2 (some centres unmarked) [LEUCOVORIN] | 17% |
| OCc1ccccc1O [SALICYL ALCOHOL] | 23% |

same assay, conditions: read-out: 20mM inhibition LmjIPCS

| Compound | inhibition at 20000 µM |
| --- | --- |
| C[C@@H]1O[C@@H](OC[C@H]2O[C@@H](Oc3c(-c4ccc(OCCO)c(OCCO)c4)oc4cc(OCCO)cc(O)c4c3=O)[C@H](O)[C@@H](O)[C@@H]2O)[C@H](O)[C@H](O)[C@H]1O [TROXERUTIN] | 20% |
| O=NN(CCCl)C(=O)NCCCl [CARMUSTINE] | 10% |
| CC(=O)Oc1ccc(Cl)c2cccnc12 [CHLOROACETOXYQUINOLINE] | 19% |
| CN(C)CCC(c1ccc(Br)cc1)c1ccccn1 (centres unmarked) [BROMPHENIRAMINE] | 14% |
| Cc1cc(CC(=O)O)n(C)c1C(=O)c1ccc(Cl)cc1 [ZOMEPIRAC] | 10% |
| O=C(O)c1cc(O)c2cccc(O)c2n1 [X[…]] | 8% |
| C[n+]1ccccc1/C=N/O [PRALIDOXIME MESYLATE] | 9% |
| CS(=O)(=O)c1ccc([C@@H](O)[C@@H](CO)NC(=O)C(Cl)Cl)cc1 [THIAMPHENICOL] | 0.377% |
| CC[C@H]1CN2CCc3cc(OC)c(OC)cc3[C@@H]2C[C@@H]1C[C@H]1NCCc2cc(OC)c(OC)cc21 [EMETINE] | 11% |
| O=C(O)c1cc2cc(Cc3cccnc3)ccc2o1 [FUREGRELATE] | -16% |
| Nc1c2ccccc2nc2ccccc12 [AMINACRINE] | -11% |
| CC(=O)O[C@]1(C(C)=O)CC[C@H]2[C@@H]3C=C(C)C4=CC(=O)CC[C@]4(C)[C@H]3CC[C@@]21C [MEGESTROL ACETATE] | 15% |
| CC(=O)O[C@]1(C(C)=O)CC[C@H]2[C@@H]3C=C(Cl)C4=CC(=O)CC[C@]4(C)[C@H]3CC[C@@]21C [CHLORMADINONE ACETATE] | 13% |
| NCCCCN=C(N)N [AGMATINE SULFATE] | 24% |
| CC1(C)S[C@@H]2[C@H](NC(=O)COc3ccccc3)C(=O)N2[C@H]1C(=O)O [PENICILLIN V] | 3.31% |
| Cn1c(=O)c2[nH]c(C3CCCC3)nc2n(C)c1=O [8-CYCLOPENTYLTHEOPHYLLINE] | 4.71% |
| COc1cccc(OC)c1C(=O)N[C@@H]1C(=O)N2[C@@H]1SC(C)(C)[C@@H]2C(=O)O [METHICILLIN] | 17% |
| CC(=O)N[C@@H](CCC(=O)O)C(=O)O [ACET[…]] | -20% |
| CCOc1ccc2ccccc2c1C(=O)N[C@@H]1C(=O)N2[C@@H]1SC(C)(C)[C@@H]2C(=O)O [NAFCILLIN] | 4.73% |
| O=C(O)c1cccnc1C(=O)O [QUINOLINIC ACID] | 5.51% |
| OCC(O)CN1CCN(c2ccccc2)CC1 (centres unmarked) [DROPROPIZINE] | 18% |

same assay, conditions: read-out: inhibition LmjIPCS

| Compound | inhibition |
| --- | --- |
| CC(C)NCC(O)c1ccc(O)c(O)c1 (centres unmarked) [ISOPROTERENOL] | 11% |
| O=C(O)c1cc(/N=N/c2ccc(S(=O)(=O)Nc3ccccn3)cc2)ccc1O [SULFASALAZINE] | 1.8% |
| Nc1ccc(S(=O)(=O)c2ccc(N)cc2)cc1 [DAPSONE] | 1.23% |
| CC(=O)O[C@H]1C(=O)[C@@]2(C)[C@H]([C@H](OC(=O)c3ccccc3)[C@]3(O)C[C@H](OC(=O)[C@H](O)[C@@H](NC(=O)c4ccccc4)c4ccccc4)C(C)=C1C3(C)C)[C@]1(OC(C)=O)CO[C@@H]1C[C@@H]2O [PACLITAXEL] | 0.0705% |
| C[C@H](CCC(=O)O)[C@H]1CC[C@H]2[C@@H]3[C@@H](O)C[C@@H]4C[C@H](O)CC[C@]4(C)[C@H]3CC[C@]12C [URSODIOL] | 8% |
| COc1ccc(NS(=O)(=O)c2ccc(N)cc2)nn1 [SULFAMETHOXYPYRIDAZINE] | -15% |
| CC(C(=O)O)c1ccc(-c2ccccc2)c(F)c1 (centres unmarked) [FLURBIPROFEN] | 4% |

same assay, conditions: screening of NINDS set, sheet Screen 1; read-out: inhibition LmjIPCS

| Compound | inhibition |
| --- | --- |
| COC(=O)Nc1nc2ccc([S+]([O-])c3ccccc3)cc2[nH]1 (centres unmarked) [OXFENDAZOLE] | 10% |
| NNC(=O)c1ccncc1 [ISONIAZID] | 9% |
| O=C(O)c1cc2ccccc2[nH]1 [INDOLE-2-CARBOXYLIC ACID] | 8% |
| NC(=O)c1ccc([N+](=O)[O-])cc1Cl [AKLOMIDE] | 4% |

same assay, conditions: single concentration 20mM as printed; screening of NINDS set, sheet Screen 1

| Compound | 20mM inhibition LmjIPCS |
| --- | --- |
| N=C(N)NC(=N)Nc1ccccc1 [1-PHENYLBIGUANIDE] | 11% |
